Data reported in patent US20210353593A1 (Chinook Therapeutics, Inc., priority 2019, published 2021).
Entries after “also recorded” stand apart in the source; their conditions may differ. Read-outs that look alike come from different tables or passages of the source.

How the values were obtained:
[1] = system: kidney tissue of g-ddY mice
[2] = system: primary human renal mesangial cells (HRMCs); assay: ET-1 induced proliferation (BrdU) of primary human renal mesangial cells; format: cell-based; conditions: 10 ng/mL ET-1, read-out: IC50, ET-1 induced HRMC proliferation
g-ddY mice = assay: Albuminuria (UACR) in g-ddY mouse model of IgA nephropathy; format: in vivo
Excerpt: The grouped ddY (g-ddY) mouse is a spontaneous model of early-onset IgA nephropathy characterized by IgA immune complex deposition in the mesangium of the kidney, leading to significant proteinuria, glomerular hypercellularity, mesangioproliferative glomerular lesions, glomerular sclerosis and reduced kidney function, all hallmarks of human IgA nephropathy (J Am Soc Nephrol 23: 1364-1374, 2012). Consistent with human IgA nephropathy, the mesangial IgA deposits in the g-ddY mouse are also accompanied by deposition of IgG and complement C3.

[3] = 20 mg/kg/day vs untreated control
[4] = 30 mg/kg/day vs untreated control
[5] = 10 mg/kg/day, approximately 5 days

In the case of `CCCCN(CCCC)C(=O)CN1C[C@H](c2ccc3c(c2)OCO3)[C@@H](C(=O)O)[C@@H]1c1ccc(OC)cc1` [Atrasentan, (2R,3R,4S)-4-(1,3-benzodioxol-5-yl)-1-[2-(dibutylamino)-2-oxoethyl]-2-(4-methoxyphenyl)pyrrolidine-3-carboxylic acid], the “Paral1 logFC” value ([1]; 20 mg/kg/day vs control) is reported as −5.133, the “Pfn3 logFC” value ([1]; 20 mg/kg/day vs control) is reported as 0.934 and the “Plekhs1 logFC” value ([1]; 20 mg/kg/day vs control) is reported as −3.661. For the same compound, the “Prkar2b logFC” value ([1]; 20 mg/kg/day vs control) was −2.468, the “Prodh logFC” value ([1]; 20 mg/kg/day vs control) was 0.8987 and the “Pvalb logFC” value ([1]; 20 mg/kg/day vs control) was 0.9441. For the same compound, the “Ren1 logFC” value ([1]; 20 mg/kg/day vs control) was 1.117, the “Slc6a19 logFC” value ([1]; 20 mg/kg/day vs control) was 0.9585 and the “Slc34a3 logFC” value ([1]; 20 mg/kg/day vs control) was 0.9345. For the same compound, the “Sprr2a3 logFC” value ([1]; 20 mg/kg/day vs control) was −4.403, the “Tmem37 logFC” value ([1]; 20 mg/kg/day vs control) was 0.9439 and the “Tns4 logFC” value ([1]; 20 mg/kg/day vs control) was −2.381. The “ET1 gene signature genes downregulated” value [1, 3] was “Nfatc1, Grk5, Klf2, Cav1, Pparg, Itga5, Myc, Ednra, Sell, Hgf, Mmp2, Edn1, Syk, Fos, and IL-1b”, the “ET1 gene signature genes upregulated” value [1, 3] was “Ccdn1, Cat, Ppara, Map2k2, Hoxa9, Agt, and Egfr” and the “Ednra and Ednrb gene expression” value ([1]; 30 mg/kg/day) was “downregulated”. For the same compound, the “number of downregulated genes” value ([1]; 30 mg/kg/day versus control) was 768 genes, the “number of upregulated genes” value ([1]; 30 mg/kg/day versus control) was 910 genes and the “1700003D09Rik logFC” value ([1]; 30 mg/kg/day vs control) was −2.087. The “1700101I11Rik logFC” value ([1]; 30 mg/kg/day vs control) was 1.613, the “A530016L24Rik logFC” value ([1]; 30 mg/kg/day vs control) was −3.0348 and the “Adamts17 logFC” value ([1]; 30 mg/kg/day vs control) was −3.191. The “Adcy2 logFC” value ([1]; 30 mg/kg/day vs control) was −2.327, the “Ankef1 logFC” value ([1]; 30 mg/kg/day vs control) was −2.3582 and the “Arhgap36 logFC” value ([1]; 30 mg/kg/day vs control) was −2.908. The “Atf3 logFC” value ([1]; 30 mg/kg/day vs control) was −2.22, the “Bhmt logFC” value ([1]; 30 mg/kg/day vs control) was 4.173 and the “Calb1 logFC” value ([1]; 30 mg/kg/day vs control) was 1.211. For the same compound, the “Ccl20 logFC” value ([1]; 30 mg/kg/day vs control) was −2.471, the “Chadl logFC” value ([1]; 30 mg/kg/day vs control) was 1.41 and the “Clec2h logFC” value ([1]; 30 mg/kg/day vs control) was 1.215. For the same compound, the “Clec4d logFC” value ([1]; 30 mg/kg/day vs control) was −4.65, the “Cxcl2 logFC” value ([1]; 30 mg/kg/day vs control) was −2.6664 and the “Cyp27b1 logFC” value ([1]; 30 mg/kg/day vs control) was 1.35. For the same compound, the “E030018B13Rik logFC” value ([1]; 30 mg/kg/day vs control) was −2.373, the “Ebf2 logFC” value ([1]; 30 mg/kg/day vs control) was −2.386 and the “Ethe1 logFC” value ([1]; 30 mg/kg/day vs control) was 1.211. The “Fam163b logFC” value ([1]; 30 mg/kg/day vs control) was −2.785, the “Fat3 logFC” value ([1]; 30 mg/kg/day vs control) was −2.067 and the “Frs3 logFC” value ([1]; 30 mg/kg/day vs control) was 1.176. The “G6pc logFC” value ([1]; 30 mg/kg/day vs control) was 1.207, the “Gm20026 logFC” value ([1]; 30 mg/kg/day vs control) was −2.0755 and the “Igfbp1 logFC” value ([1]; 30 mg/kg/day vs control) was 3.447. The “Igkv3-5 logFC” value ([1]; 30 mg/kg/day vs control) was −2.722, the “Il1b logFC” value ([1]; 30 mg/kg/day vs control) was −2.263 and the “Kcnk2 logFC” value ([1]; 30 mg/kg/day vs control) was −2.431. The “Kif1a logFC” value ([1]; 30 mg/kg/day vs control) was −2.108, the “Misp3 logFC” value ([1]; 30 mg/kg/day vs control) was 1.307 and the “Mogat2 logFC” value ([1]; 30 mg/kg/day vs control) was 1.285. The “Ndrg1 logFC” value ([1]; 30 mg/kg/day vs control) was 1.197, the “Nepn logFC” value ([1]; 30 mg/kg/day vs control) was 1.291 and the “Nkx3-1 logFC” value ([1]; 30 mg/kg/day vs control) was 1.294. For the same compound, the “Npas2 logFC” value ([1]; 30 mg/kg/day vs control) was 1.394, the “Pgam2 logFC” value ([1]; 30 mg/kg/day vs control) was 1.24 and the “Plch2 logFC” value ([1]; 30 mg/kg/day vs control) was −2.423. The “Pvalb logFC” value ([1]; 30 mg/kg/day vs control) was 1.389, the “Ren1 logFC” value ([1]; 30 mg/kg/day vs control) was 1.531 and the “Rnf182 logFC” value ([1]; 30 mg/kg/day vs control) was −2.817. The “S100g logFC” value ([1]; 30 mg/kg/day vs control) was 1.296, the “Slc6a19 logFC” value ([1]; 30 mg/kg/day vs control) was 1.238 and the “Slc16a1 logFC” value ([1]; 30 mg/kg/day vs control) was 1.178. For the same compound, the “Slc34a3 logFC” value ([1]; 30 mg/kg/day vs control) was 1.436, the “Stx1b logFC” value ([1]; 30 mg/kg/day vs control) was −2.245 and the “Tns4 logFC” value ([1]; 30 mg/kg/day vs control) was −2.443. The “Wnt10a logFC” value ([1]; 30 mg/kg/day vs control) was −2.071, the “Xirp2 logFC” value ([1]; 30 mg/kg/day vs control) was −2.619 and the “ET1 gene signature genes downregulated” value [1, 4] was “Ednrb, Myc, Mllt3, Hdac7, Ednra, Itga5, Grk5, Pparg, Klf2, Hgf, Mmp2, Sell, Sphk1, Fos, Syk, Edn1, and IL-1b”. For the same compound, the “ET1 gene signature genes upregulated” value [1, 4] was “Ccnd1, Agt, Cat, Map2k2, Hoxa9, and Ppara”, the “ET1 (End1) gene expression” value ([1]; all three doses (10, 20, 30 mg/kg/day)) was “downregulated” and the “genes overlapping with human specific Atra/ET1 gene signature” value ([1]; atrasentan treated mice) was 53 of 60. For the same compound, the IC50 ([2]; 48 hours) was 4.2 nM, the IC50 ([2]; Homo sapiens, Mesangial cell, 48 h) was about 5.1 nM and the IC50 ([2]; Homo sapiens, Mesangial cell, 72 h) was about 50.8 nM. For the same compound, the “mice with reduced albuminuria” value (g-ddY mice; 10 mg/kg/day group) was “⅔”, the “reduction of UACR from baseline” value (g-ddY mice; 10 mg/kg/day in drinking water, approximately 5 days) was 28±44% and the “albuminuria vs baseline (paired t-test)” value (g-ddY mice; [5]) was “not significantly changed from baseline”. The “effect on UACR compared to control group (un-paired t-test)” value (“effect on UACR compared to control group” for short) (g-ddY mice; [5]) was “not significant”, the “reduction of UACR from baseline” value (g-ddY mice; 20 mg/kg/day in drinking water, approximately 5 days) was 62±8% and the “effect on UACR compared to control group” value (g-ddY mice; 20 mg/kg/day, approximately 5 days, P=0.0498) was “statistically significant compared to the control group; also recorded: significantly reduced albuminuria”. For the same compound, the “albuminuria vs baseline (paired t-test)” value (g-ddY mice; 20 mg/kg/day, approximately 5 days, P=0.0593) was “reduced from baseline to a similar extent”, the “reduction of UACR from baseline” value (g-ddY mice; 30 mg/kg/day in drinking water, approximately 5 days) was 63±6% and the “albuminuria vs baseline (paired t-test)” value (g-ddY mice; 30 mg/kg/day, approximately 5 days) was “significantly (P=0.0002, paired two-sided t-test) reduced albuminuria from baseline”. For the same compound, the “effect on UACR compared to control group” value (g-ddY mice; 30 mg/kg/day, approximately 5 days, P=0.029) was “statistically significant compared to the control group; also recorded: significantly reduced albuminuria” and the “magnitude of albuminuria lowering (reduction from baseline)” value (g-ddY mice; 20 and 30 mg/kg/day, approximately 5 days) was over 60%.
